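Abbreviation: GI50, concentration required for 50% inhibition of growth. At the TGI there is no net growth.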
Legend:
Assay in all cases: inhibition of tumour cell growth, NCI panel, 384-well format
RPMI-8226 leukemia = system: RPMI-8226 leukemia
HCC-2998 colon = system: HCC-2998 colon
K-562 leukemia = system: K-562 leukemia
UACC-257 melanoma = system: UACC-257 melanoma
HT29 colon = system: HT29 colon
MDA-MB-231 breast = system: MDA-MB-231 breast
MDA-MB-468 breast = system: MDA-MB-468 breast
SW-620 colon = system: SW-620 colon
UACC-62 melanoma = system: UACC-62 melanoma
ACHN renal = system: ACHN renal
NCI-H522 lung = system: NCI-H522 lung
M14 melanoma = system: M14 melanoma
T-47D breast = system: T-47D breast
MOLT-4 leukemia = system: MOLT-4 leukemia
PC-3 prostate = system: PC-3 prostate
KM12 colon = system: KM12 colon
NCI-H23 lung = system: NCI-H23 lung
HOP-92 NSCLC = system: HOP-92 NSCLC
SNB-19 CNS = system: SNB-19 CNS
IGROV1 ovarian = system: IGROV1 ovarian
SF-539 CNS = system: SF-539 CNS
A549 NSCLC = system: A549 NSCLC
OVCAR-4 ovarian = system: OVCAR-4 ovarian
UO-31 renal = system: UO-31 renal
786-0 renal = system: 786-0 renal
NCI-H460 NSCLC = system: NCI-H460 NSCLC
CCRF-CEM leukemia = system: CCRF-CEM leukemia
SF-295 CNS = system: SF-295 CNS
SK-OV-3 ovarian = system: SK-OV-3 ovarian

COc1cc(N2CCC(N)CC2)ccc1Nc1ncc(Cl)c(-c2c[nH]c3ccccc23)n1
TGI (RPMI-8226 leukemia): 1580 nM | GI50 (HCC-2998 colon): 349 nM | TGI (HCC-2998 colon): 1680 nM | GI50 (K-562 leukemia): 876 nM | TGI (K-562 leukemia): 2130 nM | GI50 (UACC-257 melanoma): 789 nM | TGI (UACC-257 melanoma): 2100 nM | GI50 (HT29 colon): 55.9 nM | TGI (HT29 colon): 1350 nM | GI50 (MDA-MB-231 breast): 1080 nM | TGI (MDA-MB-231 breast): 2300 nM | GI50 (MDA-MB-468 breast): 667 nM | TGI (MDA-MB-468 breast): 1930 nM | GI50 (SW-620 colon): 254 nM | TGI (SW-620 colon): 1330 nM | GI50 (UACC-62 melanoma): 385 nM | TGI (UACC-62 melanoma): 1770 nM | GI50 (ACHN renal): 535 nM | TGI (ACHN renal): 1860 nM | GI50 (NCI-H522 lung): 221 nM | TGI (NCI-H522 lung): 1230 nM | GI50 (M14 melanoma): 388 nM | TGI (M14 melanoma): 1620 nM | GI50 (T-47D breast): 1180 nM | TGI (T-47D breast): 2410 nM | GI50 (MOLT-4 leukemia): 437 nM | TGI (MOLT-4 leukemia): 1640 nM | GI50 (PC-3 prostate): 1090 nM | TGI (PC-3 prostate): 2330 nM | GI50 (KM12 colon): 209 nM | TGI (KM12 colon): 679 nM | GI50 (NCI-H23 lung): 318 nM | TGI (NCI-H23 lung): 1760 nM | GI50 (HOP-92 NSCLC): 377 nM | TGI (HOP-92 NSCLC): 1670 nM | GI50 (SNB-19 CNS): 1570 nM | TGI (SNB-19 CNS): 2940 nM | GI50 (IGROV1 ovarian): 284 nM | TGI (IGROV1 ovarian): 1000 nM | GI50 (SF-539 CNS): 453 nM | TGI (SF-539 CNS): 1820 nM | GI50 (A549 NSCLC): 858 nM | TGI (A549 NSCLC): 2120 nM | GI50 (OVCAR-4 ovarian): 1210 nM | TGI (OVCAR-4 ovarian): 2480 nM | GI50 (UO-31 renal): 655 nM | TGI (UO-31 renal): 1950 nM | GI50 ([…]-0 renal): 1010 nM | TGI (786-0 renal): 2190 nM | GI50 (NCI-H460 NSCLC): 184 nM | TGI (NCI-H460 NSCLC): 1390 nM | GI50 (CCRF-CEM leukemia): 886 nM | TGI (CCRF-CEM leukemia): 2100 nM | GI50 (SF-295 CNS): 1450 nM | TGI (SF-295 CNS): 2770 nM | GI50 (SK-OV-3 ovarian): 334 nM | TGI (SK-OV-3 ovarian): 1440 nM

From PubChem BioAssay (NCI)
